According to patent US8541670B2, “Compositions and methods for inhibiting tumor cell growth” (priority 2007, dated 2013):
Where no end group is shown, it is not given here. red fluorescent dye = not defined here

Tests used:
[1] = tested on: the other kinases assayed; assay: In vivo selectivity, western blot of phosphorylated substrates, other kinases inhibited in vitro at higher concentrations; parameters: species or system mouse; conditions: versus DMSO hemisphere
Method: To analyze in vivo selectivity, ZaTa was injected into one hemisphere and DMSO in the other hemisphere, as above, and a series of western blot analyses was preformed with phospho-specific antibodies which recognize a phosphorylated substrate or each one of the kinases that ZaTa inhibited at higher concentrations in vitro. […] Given the high functional and structural homology between p70S6K and AKT, the in vivo inhibitory effect of ZaTa on p70S6K was contemplated. Furthermore, the in vivo effect of ZaTa on the phosphorylation levels of substrates for PKA, PKC, CDKs using phospho-specific antibodies recognizing the phosphorylated consensus sites of these kinases was analyzed. In contrast to the consistent decrease in phosphorylation of AKT substrates, significant changes in the phosphorylation level of PKA, PKC and CDKs substrates was not observed after in vivo injection of ZaTa.
(§1) Phosphorylation sites for kinases analyzed herein included Ser-235/236 S6 (a substrate for p70S6K), Tyr-207 CRKL (a substrate for Abl; Zipfel, et al. (2004) supra), Ser-241 PDK1 (a substrate for PI3K), Tyr-1022/1023 JAK1 (a substrate for JAK3; Wang, et al. (2003) supra), Ser-421 Huntingtin (a substrate for SGK; Rangone, et al. (2004) supra), Tyr-783 PLC (a substrate for TrkB; Middlemas, et al. (1994) supra), and Ser-338 cRaf (a substrate for PAK3; King, et al. (1998) supra).

[2] = tested on: panel of 32 kinases (AKT2, AKT3, PKA, PKC, PI3K, SGK, PAK2, PAK3, SAPK2/p38, Abl, CaMKII, CDK1/cyclinB, CDK5/p35, CK1, CK2, CSK, GSK3, JNK1, MAPK1, p70S6K …); assay: In vitro kinase selectivity panel of 32 kinases; assay type: biochemical; conditions: at IC50 for AKT1 (0.1 μM)
Method: (§2) As a specific substrate, the phosphorylation level of GSK-3[…] at Ser-9 was also evaluated. […] The decrease was specific to the AKT phosphorylation site on GSK-3[…] at Ser-9, since a change in the phosphorylation level of GSK-3[…] at Tyr-216 or GSK-3[…] at Tyr-279 was not observed. Moreover, the in vivo reduction of the phosphorylation of AKT substrates was more obvious at the injection site, since a significant change in the phosphorylation of AKT substrates in the frontal cortex or cerebellum between the two hemispheres was not observed. […] To test the specificity/selectivity of ZaTa as the inhibitor of AKT1 versus the other major kinases, a series of in vitro kinase assays was performed at IC50 for AKT1 and at ten times higher concentrations. A panel of the following 32 kinases was first tested in vitro using the active form of each kinase and a specific substrate: AKT2, AKT3, PKA, PKC[…], PKC, PI3K[…], PI3K[…], PI3K, SGK, PAK2, PAK3, SAPK2/p38, Abl, CaMKII, CDK1/cyclinB, CDK5/p35, CK1, CK2, CSK, GSK3[…], GSK3[…], JNK1[…]1, MAPK1, p70S6K, PDGFR[…], PDGFR[…], PDK1, PKG1[…], TrkB, JAK2, JAK3, and Syk. […] However, at ten times higher concentration, ZaTa inhibited AKT2 (63%), PI3K[…] (72%), p70S6K (64%), SGK (73%), PAK3 (83%), JAK3 (79%), TrkB (84%), and Abl (42%). […]

PKA and CDK5 = assay: In vivo phosphorylation of DARPP-32 at Thr-34 (PKA site) and Thr-75 (CDK5 site); parameters: species or system mouse; conditions: striatum
Method: As a striatal specific substrate for PKA and CDK5, the phosphorylation level of DARPP-32 was determined at Thr-34 (the PKA site) or at Thr-75 (the CDK5 site)(Huang, et al. (1999) supra).

PKAc = biological target: T1, PKAc (Homo sapiens, UniProt P17612); assay: Independent kinase assays on catalytic activity of PKAc; assay type: biochemical
T1 construct: purchased Upstate Biotechnology
Text: Of particular interest with regard to inhibitory activity toward AKT was peptide […](SEQ ID NO:60) which flanked the Thr-197 phosphorylation site of PKAc. […] Furthermore, the inhibitory effect of ZaTa peptide was compared with an adjacent peptide ([…] SEQ ID NO:59), a peptide that overlaps with the 11 N-terminal amino acid residues of the ZaTa peptide and carries the Thr-197 phosphorylation site. In this assay, the level of incorporation of −^32 P into Ser-21 GSK-3[…] substrate peptide was used as the measure of AKT1 in vitro catalytic activity.
For non-radioactive kinase assays, typically 25 ng of active AKT1 or PKAc (Upstate Biotechnology) was used in a kinase assay reaction buffer (20 mM MOPS, pH 7.2, 25 mM […]-glycerophosphate, 5 mM EGTA, 1 mM Na3VO4, 1 mM dithiothreitol, 75 mM MgCl2, and 0.5 mM ATP) in the presence of either 1 μL of Ser-9 GSK-3 GST fusion protein (Cell Signaling), or recombinant DARPP-32 (10 μg). […] A 5 μL aliquot of the reaction was transferred to phosphocellulose paper, washed for 30 minutes with dH2O, and CPM of samples read in scintillation counter.

[3] = mouse, in vivo
TrkB = TrkB (Homo sapiens, UniProt Q16620); assay: In vitro kinase assay TrkB; assay type: biochemical; conditions: ten times higher concentration than 0.1 μM
Method: as §2

Abl = Abl (Homo sapiens, UniProt P00519); assay: Cell-based kinase assay, phosphorylation of intracellular substrate (Tyr-207 CRKL)
Method: As a specific substrate, the phosphorylation level of GSK-3[…] at Ser-9 was also evaluated. […] The decrease was specific to the AKT phosphorylation site on GSK-3[…] at Ser-9, since a change in the phosphorylation level of GSK-3[…] at Tyr-216 or GSK-3[…] at Tyr-279 was not observed. Moreover, the in vivo reduction of the phosphorylation of AKT substrates was more obvious at the injection site, since a significant change in the phosphorylation of AKT substrates in the frontal cortex or cerebellum between the two hemispheres was not observed. […] To test the specificity/selectivity of ZaTa as the inhibitor of AKT1 versus the other major kinases, a series of in vitro kinase assays was performed at IC50 for AKT1 and at ten times higher concentrations. […]
as §1

Sequence of TrkB (Q16620 32-822, species assumed): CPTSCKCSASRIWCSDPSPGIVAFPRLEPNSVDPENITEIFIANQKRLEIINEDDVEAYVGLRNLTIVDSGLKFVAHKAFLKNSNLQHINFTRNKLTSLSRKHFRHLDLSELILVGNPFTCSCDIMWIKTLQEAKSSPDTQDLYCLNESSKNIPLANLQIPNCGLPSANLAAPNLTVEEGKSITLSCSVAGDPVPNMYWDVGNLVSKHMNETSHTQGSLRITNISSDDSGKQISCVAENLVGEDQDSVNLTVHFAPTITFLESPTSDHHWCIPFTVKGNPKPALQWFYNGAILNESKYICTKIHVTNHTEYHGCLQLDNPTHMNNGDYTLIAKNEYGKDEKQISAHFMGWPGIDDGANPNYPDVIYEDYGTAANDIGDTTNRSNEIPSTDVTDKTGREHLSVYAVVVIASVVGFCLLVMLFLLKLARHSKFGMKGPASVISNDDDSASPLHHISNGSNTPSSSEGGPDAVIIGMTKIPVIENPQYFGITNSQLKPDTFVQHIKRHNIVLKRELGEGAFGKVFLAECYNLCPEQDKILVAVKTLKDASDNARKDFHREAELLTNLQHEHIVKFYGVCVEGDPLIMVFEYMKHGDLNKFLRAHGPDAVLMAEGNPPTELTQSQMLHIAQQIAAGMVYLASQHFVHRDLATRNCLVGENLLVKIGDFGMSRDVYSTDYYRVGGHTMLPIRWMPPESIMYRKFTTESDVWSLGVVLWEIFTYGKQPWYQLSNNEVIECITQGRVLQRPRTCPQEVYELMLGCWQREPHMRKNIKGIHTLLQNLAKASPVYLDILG
Sequence of Abl (P00519 whole entry, species assumed): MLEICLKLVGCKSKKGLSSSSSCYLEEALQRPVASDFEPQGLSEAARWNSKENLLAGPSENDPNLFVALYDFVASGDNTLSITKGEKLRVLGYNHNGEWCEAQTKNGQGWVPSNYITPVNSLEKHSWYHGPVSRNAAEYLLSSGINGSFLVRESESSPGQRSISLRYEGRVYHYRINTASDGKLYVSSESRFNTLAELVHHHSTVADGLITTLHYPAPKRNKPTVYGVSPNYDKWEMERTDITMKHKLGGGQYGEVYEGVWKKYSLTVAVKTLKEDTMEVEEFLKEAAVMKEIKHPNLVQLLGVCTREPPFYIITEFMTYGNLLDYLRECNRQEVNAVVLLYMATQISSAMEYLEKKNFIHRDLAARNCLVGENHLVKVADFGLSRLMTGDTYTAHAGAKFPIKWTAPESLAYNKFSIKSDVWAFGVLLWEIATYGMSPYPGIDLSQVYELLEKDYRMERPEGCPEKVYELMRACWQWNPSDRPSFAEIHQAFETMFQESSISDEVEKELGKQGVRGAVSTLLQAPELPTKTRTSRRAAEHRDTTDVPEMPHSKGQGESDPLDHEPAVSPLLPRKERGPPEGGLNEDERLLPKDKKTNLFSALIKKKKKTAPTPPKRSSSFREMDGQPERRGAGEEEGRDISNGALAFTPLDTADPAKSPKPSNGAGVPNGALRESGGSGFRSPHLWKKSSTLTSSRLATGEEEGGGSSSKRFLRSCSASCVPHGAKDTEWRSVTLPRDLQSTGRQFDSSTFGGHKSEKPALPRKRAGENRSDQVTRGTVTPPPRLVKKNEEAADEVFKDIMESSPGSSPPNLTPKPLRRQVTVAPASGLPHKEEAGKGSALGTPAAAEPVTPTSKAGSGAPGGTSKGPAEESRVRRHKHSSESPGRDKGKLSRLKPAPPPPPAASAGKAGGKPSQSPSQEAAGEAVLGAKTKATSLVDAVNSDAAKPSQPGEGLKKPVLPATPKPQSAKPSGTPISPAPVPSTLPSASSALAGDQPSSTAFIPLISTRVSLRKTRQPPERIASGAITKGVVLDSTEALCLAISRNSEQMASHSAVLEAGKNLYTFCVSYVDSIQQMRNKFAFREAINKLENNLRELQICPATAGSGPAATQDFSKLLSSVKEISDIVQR

| Substance | in vivo inhibitory effects on the other kinases assayed [1] | inhibition of panel kinases [2] | phosphorylation of DARPP-32 at Thr-34 or Thr-75 (PKA and CDK5) | inhibitory effect on catalytic activity of PKAc (PKAc) | distribution and absorption throughout brain tissue [3] | inhibition of TrkB (TrkB) | inhibition of Abl in cells (Abl) |
| --- | --- | --- | --- | --- | --- | --- | --- |
| AKRVKGRTWTLCGTPEY [ZaTa] | No in vivo inhibitory effects | no significant inhibition | did not cause any significant change | did not exhibit any inhibitory effect | efficient distribution and absorption | 84% | – |
| labeled ZaTa: ZaTa peptide labeled with a red fluorescent dye at its N-terminus ({red fluorescent dye}-AKRVKGRTWTLCGTPEY; reading uncertain) | – | – | – | – | – | – | did not cause inhibition |
